# Experimental data from patent US11931424B2, “Combination MCL-1 inhibitors with anti-body drug conjugates” (Gilead Sciences, Inc., priority 2021, dated 2024).
# System: panel of breast cancer cell lines
# Experiment: Compound A with targeted agents and chemotherapies, 72-hour in vitro proliferation assays
# Format: cell-based
# Settings: 72-hour proliferation
# [1] = AU565 cell line, compound A × partner
# [2] = BT-20 cell line, compound A × partner
# [3] = BT-474 cell line, compound A × partner
# [4] = BT-549 cell line, compound A × partner
# [5] = CAL-51 cell line, compound A × partner
# [6] = CAL-85-1 cell line, compound A × partner
# [7] = CAL-120 cell line, compound A × partner
# [8] = CAL-148 cell line, compound A × partner
# [9] = CAMA-1 cell line, compound A × partner
# [10] = DU-4475 cell line, compound A × partner
# [11] = EVSA-T cell line, compound A × partner
# [12] = HCC1143 cell line, compound A × partner
# [13] = MCF7 cells, Compound A × partner agent
# [14] = MDA-MB-175-VII cells, Compound A × partner agent
# [15] = MDA-MB-231 cells, Compound A × partner agent
# [16] = MDA-MB-361 cells, Compound A × partner agent
# [17] = MDA-MB-436 cells, Compound A × partner agent
# [18] = MDA-MB-453 cells, Compound A × partner agent
# [19] = MDA-MB-468 cells, Compound A × partner agent
# [20] = SK-BR-3 cells, Compound A × partner agent
# [21] = SUM159PT cells, combination of compound A with the named agent
# [22] = T47D cells, combination of compound A with the named agent
# [23] = ZR-75-1 cells, combination of compound A with the named agent
# [24] = ZR-75-30 cells, combination of compound A with the named agent
structure (smiles),measurement,setting,value
N.N.O=C([O-])C1(C(=O)[O-])CCC1.[Pt+2] [Carboplatin],Best CI,[1],1.10
same,Bliss Volume,[1],6.93
same,HSA volume,[1],−0.68
same,Loewe Volume,[1],−0.04
same,Synergy Score,[1],3.68
same,Best CI,[2],0.66
same,Bliss Volume,[2],7.81
same,HSA volume,[2],1.55
same,Loewe Volume,[2],−0.31
same,Synergy Score,[2],5.46
same,Best CI,[3],1.30
same,Bliss Volume,[3],−3.87
same,HSA volume,[3],−5.02
same,Loewe Volume,[3],−4.61
same,Synergy Score,[3],2.18
same,Best CI,[4],1.30
same,Bliss Volume,[4],6.55
same,HSA volume,[4],4.24
same,Loewe Volume,[4],4.88
same,Synergy Score,[4],5.26
same,Best CI,[5],0.89
same,Bliss Volume,[5],2.81
same,HSA volume,[5],2.17
same,Loewe Volume,[5],2.97
same,Synergy Score,[5],5.53
same,Best CI,[6],1.11
same,Bliss Volume,[6],4.84
same,HSA volume,[6],3.68
same,Loewe Volume,[6],3.42
same,Synergy Score,[6],4.18
same,Best CI,[7],0.58
same,Bliss Volume,[7],−0.19
same,HSA volume,[7],−1.52
same,Loewe Volume,[7],−0.25
same,Synergy Score,[7],0.49
same,Best CI,[8],0.27
same,Bliss Volume,[8],11.40
same,HSA volume,[8],12.06
same,Loewe Volume,[8],11.89
same,Synergy Score,[8],24.09
same,Best CI,[9],0.46
same,Bliss Volume,[9],9.50
same,HSA volume,[9],6.02
same,Loewe Volume,[9],6.21
same,Synergy Score,[9],12.48
same,Best CI,[10],0.76
same,Bliss Volume,[10],10.04
same,HSA volume,[10],7.26
same,Loewe Volume,[10],6.59
same,Synergy Score,[10],8.88
same,Best CI,[11],0.84
same,Bliss Volume,[11],9.55
same,HSA volume,[11],−0.13
same,Loewe Volume,[11],−0.33
same,Synergy Score,[11],4.72
same,Best CI,"HCC38, compound A × partner",0.63
same,Best CI Level,"HCC38, compound A × partner",130
same,Bliss Volume,"HCC38, compound A × partner",5.43
same,HSA volume,"HCC38, compound A × partner",5.68
same,Loewe Volume,"HCC38, compound A × partner",3.81
same,Synergy Score,"HCC38, compound A × partner",9.07
same,Best CI,"HCC70, compound A × partner",0.31
same,Best CI Level,"HCC70, compound A × partner",60
same,Bliss Volume,"HCC70, compound A × partner",12.67
same,HSA volume,"HCC70, compound A × partner",3.84
same,Loewe Volume,"HCC70, compound A × partner",3.02
same,Synergy Score,"HCC70, compound A × partner",7.72
same,Best CI,[12],0.82
same,Bliss Volume,[12],−4.47
same,HSA volume,[12],−2.24
same,Loewe Volume,[12],−2.60
same,Synergy Score,[12],3.59
same,Best CI,"HCC1569, compound A × partner",0.43
same,Best CI Level,"HCC1569, compound A × partner",30
same,Bliss Volume,"HCC1569, compound A × partner",4.84
same,HSA volume,"HCC1569, compound A × partner",2.05
same,Loewe Volume,"HCC1569, compound A × partner",2.91
same,Synergy Score,"HCC1569, compound A × partner",2.85
same,Best CI,"HCC1806, compound A × partner",0.33
same,Best CI Level,"HCC1806, compound A × partner",80
same,Bliss Volume,"HCC1806, compound A × partner",11.43
same,HSA volume,"HCC1806, compound A × partner",4.44
same,Loewe Volume,"HCC1806, compound A × partner",9.76
same,Synergy Score,"HCC1806, compound A × partner",9.06
same,Best CI,"HCC1937, compound A × partner",0.44
same,Best CI Level,"HCC1937, compound A × partner",25
same,Bliss Volume,"HCC1937, compound A × partner",5.97
same,HSA volume,"HCC1937, compound A × partner",3.52
same,Loewe Volume,"HCC1937, compound A × partner",4.56
same,Synergy Score,"HCC1937, compound A × partner",4.59
same,Best CI,"HCC1954, compound A × partner",1.07
same,Best CI Level,"HCC1954, compound A × partner",125
same,Bliss Volume,"HCC1954, compound A × partner",2.26
same,HSA volume,"HCC1954, compound A × partner",2.07
same,Loewe Volume,"HCC1954, compound A × partner",0.71
same,Synergy Score,"HCC1954, compound A × partner",5.12
same,Best CI,"HCC2218, compound A × partner",0.70
same,Best CI Level,"HCC2218, compound A × partner",45
same,Bliss Volume,"HCC2218, compound A × partner",2.59
same,HSA volume,"HCC2218, compound A × partner",0.49
same,Loewe Volume,"HCC2218, compound A × partner",−1.33
same,Synergy Score,"HCC2218, compound A × partner",5.27
same,Best CI,"HDQ-P1, compound A × partner",0.92
same,Best CI Level,"HDQ-P1, compound A × partner",35
same,Bliss Volume,"HDQ-P1, compound A × partner",−3.17
same,HSA volume,"HDQ-P1, compound A × partner",−3.06
same,Loewe Volume,"HDQ-P1, compound A × partner",−3.13
same,Synergy Score,"HDQ-P1, compound A × partner",0.54
same,Best CI,"HMC-1-8, compound A × partner",0.72
same,Best CI Level,"HMC-1-8, compound A × partner",155
same,Bliss Volume,"HMC-1-8, compound A × partner",9.25
same,HSA volume,"HMC-1-8, compound A × partner",4.09
same,Loewe Volume,"HMC-1-8, compound A × partner",3.94
same,Synergy Score,"HMC-1-8, compound A × partner",9.60
same,Best CI,"JIMT-1, compound A × partner",0.96
same,Best CI Level,"JIMT-1, compound A × partner",25
same,Bliss Volume,"JIMT-1, compound A × partner",3.78
same,HSA volume,"JIMT-1, compound A × partner",−0.17
same,Loewe Volume,"JIMT-1, compound A × partner",1.92
same,Synergy Score,"JIMT-1, compound A × partner",0.69
same,Best CI,"KPL-1, compound A × partner",0.89
same,Best CI Level,"KPL-1, compound A × partner",105
same,Bliss Volume,"KPL-1, compound A × partner",0.04
same,HSA volume,"KPL-1, compound A × partner",1.33
same,Loewe Volume,"KPL-1, compound A × partner",0.65
same,Synergy Score,"KPL-1, compound A × partner",2.66
same,Best CI,[13],0.40
same,Best CI Level,[13],75
same,Bliss Volume,[13],8.40
same,HSA volume,[13],5.66
same,Loewe Volume,[13],4.40
same,Synergy Score,[13],6.10
same,Best CI,[14],0.60
same,Best CI Level,[14],80
same,Bliss Volume,[14],15.45
same,HSA volume,[14],7.97
same,Loewe Volume,[14],12.14
same,Synergy Score,[14],9.73
same,Best CI,[15],0.91
same,Best CI Level,[15],50
same,Bliss Volume,[15],3.11
same,HSA volume,[15],2.11
same,Loewe Volume,[15],3.30
same,Synergy Score,[15],1.89
same,Best CI,[16],0.82
same,Best CI Level,[16],135
same,Bliss Volume,[16],2.52
same,HSA volume,[16],1.01
same,Loewe Volume,[16],1.40
same,Synergy Score,[16],7.41
same,Best CI,[17],1.72
same,Best CI Level,[17],135
same,Bliss Volume,[17],1.31
same,HSA volume,[17],1.06
same,Loewe Volume,[17],1.16
same,Synergy Score,[17],2.53
same,Best CI,[18],1.12
same,Best CI Level,[18],150
same,Bliss Volume,[18],9.75
same,HSA volume,[18],5.44
same,Loewe Volume,[18],6.37
same,Synergy Score,[18],10.04
same,Best CI,[19],0.56
same,Best CI Level,[19],135
same,Bliss Volume,[19],19.05
same,HSA volume,[19],4.48
same,Loewe Volume,[19],3.36
same,Synergy Score,[19],7.68
same,Best CI,[20],0.35
same,Best CI Level,[20],160
same,Bliss Volume,[20],11.97
same,HSA volume,[20],1.74
same,Loewe Volume,[20],1.40
same,Synergy Score,[20],6.87
same,Best CI,[21],0.52
same,Best CI Level,[21],20
same,Bliss Volume,[21],1.33
same,HSA volume,[21],−1.99
same,Loewe Volume,[21],−0.01
same,Synergy Score,[21],0.81
same,Best CI,[22],1.01
same,Best CI Level,[22],30
same,Bliss Volume,[22],0.78
same,HSA volume,[22],−1.67
same,Loewe Volume,[22],0.98
same,Synergy Score,[22],1.42
same,Best CI,[23],0.88
same,Best CI Level,[23],100
same,Bliss Volume,[23],4.99
same,HSA volume,[23],6.14
same,Loewe Volume,[23],6.57
same,Synergy Score,[23],7.91
same,Best CI,[24],0.30
same,Best CI Level,[24],100
same,Bliss Volume,[24],8.34
same,HSA volume,[24],6.81
same,Loewe Volume,[24],5.78
same,Synergy Score,[24],12.96
